Data published in patent publication US9738634B2, “Heterocyclic amide compound and herbicide” (SYNGENTA PARTICIPATIONS AG, priority 2013, dated 2017).

How the values were obtained:
Type in all cases: in vivo
fig-leafed goosefoot [1] = assay: Test Example 3: weedkilling efficacy through soil treatment; M: fig-leafed goosefoot; conditions: treatment dosage 315 g/ha
Outline: (§1)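 Crop and weed responses were judged three weeks after a uniform surface spray of the water-diluted emulsion at the given g/ha rate. Seeds sat beneath about 1.5 cm of sterilized diluvial soil, and boxes stood in a greenhouse at 25 to 30° C.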

directly sown rice [2] = assay: Test Example 4: foliar treatment, effect on crop; b: directly sown rice; conditions: treatment dosage 315 g/ha
Outline: (§2)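 Seeds are spot-sown into sterilized diluvial soil and covered with about 1.5 cm of soil. After 14 days' greenhouse growth at 25 to 30° C, plants are sprayed on stems and leaves with diluted emulsion at the stated g/ha rate, then scored at 3 weeks.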

crabgrass [3] = assay: Test Example 3: weedkilling efficacy through soil treatment; D: crabgrass; conditions: treatment dosage 315 g/ha
Outline: as §1

catchweed = assay: Test Example 4: weedkilling efficacy by foliar treatment; O: catchweed; conditions: treatment dosage 315 g/ha
Outline: as §2

green foxtail [4] = assay: Test Example 3: weedkilling efficacy through soil treatment; E: green foxtail; conditions: treatment dosage 315 g/ha
Outline: as §1

oval-leafed pondweed [5] = assay: Test Example 2: weedkilling efficacy, growth period weed treatment in the submerged state; C: oval-leafed pondweed; conditions: treatment dosage 252 g/ha
Outline: (§3)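 Barnyard grass, bulrush and oval-leafed pondweed sown in alluvial soil under 4 cm flooding, greenhouse 25 to 30° C. At 1-2 leaf stage, water-diluted emulsion applied to the water surface at stated g/ha dosages; effects scored 3 weeks later.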

oval-leafed pondweed [6] = assay: Test Example 1: weedkilling efficacy, preemergent weed treatment in the submerged state; C: oval-leafed pondweed; conditions: treatment dosage 252 g/ha
Outline: (§4)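 Visual scores against set criteria were taken 3 weeks after treatment. Compounds, as diluted emulsions at specified g/ha, went onto the water surface of 4 cm-flooded alluvial soil pots on the day weeds were sown and 2.5-leaf rice was transplanted; greenhouse held 25–30 °C.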

corn [7] = assay: Test Example 4: foliar treatment, effect on crop; c: corn; conditions: treatment dosage 315 g/ha
Outline: as §2

Italian ryegrass [8] = assay: Test Example 3: weedkilling efficacy through soil treatment; I: Italian ryegrass; conditions: treatment dosage 315 g/ha
Outline: as §1

birds-eye speedwell [9] = assay: Test Example 4: weedkilling efficacy by foliar treatment; p: birds-eye speedwell; conditions: treatment dosage 315 g/ha
Outline: as §2

black-grass [10] = assay: Test Example 3: weedkilling efficacy through soil treatment; H: black-grass; conditions: treatment dosage 315 g/ha
Outline: as §1

wheat [11] = assay: Test Example 4: foliar treatment, effect on crop; e: wheat; conditions: treatment dosage 315 g/ha
Outline: as §2

chickweed [12] = assay: Test Example 4: weedkilling efficacy by foliar treatment; N: chickweed; conditions: treatment dosage 315 g/ha
Outline: as §2

directly sown rice [13] = assay: Test Example 3: soil treatment, effect on crop; b: directly sown rice; conditions: treatment dosage 315 g/ha
Outline: as §1

soybean [14] = assay: Test Example 3: soil treatment, effect on crop; d: soybean; conditions: treatment dosage 315 g/ha
Outline: as §1

bulrush [15] = assay: Test Example 2: weedkilling efficacy, growth period weed treatment in the submerged state; B: bulrush; conditions: treatment dosage 252 g/ha
Outline: as §3

Indian mallow [16] = assay: Test Example 4: weedkilling efficacy by foliar treatment; K: Indian mallow; conditions: treatment dosage 315 g/ha
Outline: as §2

black-grass [17] = assay: Test Example 4: weedkilling efficacy by foliar treatment; H: black-grass; conditions: treatment dosage 315 g/ha
Outline: as §2

barnyard grass [18] = assay: Test Example 2: weedkilling efficacy, growth period weed treatment in the submerged state; A: barnyard grass; conditions: treatment dosage 252 g/ha
Outline: as §3

fig-leafed goosefoot [19] = assay: Test Example 4: weedkilling efficacy by foliar treatment; M: fig-leafed goosefoot; conditions: treatment dosage 315 g/ha
Outline: as §2

wild oat [20] = assay: Test Example 3: weedkilling efficacy through soil treatment; G: wild oat; conditions: treatment dosage 315 g/ha
Outline: as §1

green foxtail [21] = assay: Test Example 4: weedkilling efficacy by foliar treatment; E: green foxtail; conditions: treatment dosage 315 g/ha
Outline: as §2

chickweed [22] = assay: Test Example 3: weedkilling efficacy through soil treatment; N: chickweed; conditions: treatment dosage 315 g/ha
Outline: as §1

crabgrass [23] = assay: Test Example 4: weedkilling efficacy by foliar treatment; D: crabgrass; conditions: treatment dosage 315 g/ha
Outline: as §2

redroot pigweed [24] = assay: Test Example 3: weedkilling efficacy through soil treatment; L: redroot pigweed; conditions: treatment dosage 315 g/ha
Outline: as §1

Indian mallow [25] = assay: Test Example 3: weedkilling efficacy through soil treatment; K: Indian mallow; conditions: treatment dosage 315 g/ha
Outline: as §1

Italian ryegrass [26] = assay: Test Example 4: weedkilling efficacy by foliar treatment; I: Italian ryegrass; conditions: treatment dosage 315 g/ha
Outline: as §2

birds-eye speedwell [27] = assay: Test Example 3: weedkilling efficacy through soil treatment; p: birds-eye speedwell; conditions: treatment dosage 315 g/ha
Outline: as §1

bulrush [28] = assay: Test Example 1: weedkilling efficacy, preemergent weed treatment in the submerged state; B: bulrush; conditions: treatment dosage 252 g/ha
Outline: as §4

beet [29] = assay: Test Example 3: soil treatment, effect on crop; f: beet; conditions: treatment dosage 315 g/ha
Outline: as §1

corn [30] = assay: Test Example 3: soil treatment, effect on crop; c: corn; conditions: treatment dosage 315 g/ha
Outline: as §1

beet [31] = assay: Test Example 4: foliar treatment, effect on crop; f: beet; conditions: treatment dosage 315 g/ha
Outline: as §2

wheat [32] = assay: Test Example 3: soil treatment, effect on crop; e: wheat; conditions: treatment dosage 315 g/ha
Outline: as §1

soybean [33] = assay: Test Example 4: foliar treatment, effect on crop; d: soybean; conditions: treatment dosage 315 g/ha
Outline: as §2

redroot pigweed [34] = assay: Test Example 4: weedkilling efficacy by foliar treatment; L: redroot pigweed; conditions: treatment dosage 315 g/ha
Outline: as §2

transplanted rice = assay: Test Example 1: preemergent weed treatment in the submerged state, effect on crop; a: transplanted rice; conditions: treatment dosage 252 g/ha
Outline: as §4

wild oat [35] = assay: Test Example 4: weedkilling efficacy by foliar treatment; G: wild oat; conditions: treatment dosage 315 g/ha
Outline: as §2

barnyard grass [36] = assay: Test Example 1: weedkilling efficacy, preemergent weed treatment in the submerged state; A: barnyard grass; conditions: treatment dosage 252 g/ha
Outline: as §4

| Structure (SMILES) | M (fig-leafed goosefoot) weedkilling efficacy grade (fig-leafed goosefoot [1]) | b (directly sown rice) effect on crop grade (directly sown rice [2]) | D (crabgrass) weedkilling efficacy grade (crabgrass [3]) | O (catchweed) weedkilling efficacy grade (catchweed) | E (green foxtail) weedkilling efficacy grade (green foxtail [4]) | C (oval-leafed pondweed) weedkilling efficacy grade (oval-leafed pondweed [6]) | c (corn) effect on crop grade (corn [7]) | I (Italian ryegrass) weedkilling efficacy grade (Italian ryegrass [8]) | P (birds-eye speedwell) weedkilling efficacy grade (birds-eye speedwell [9]) | H (black-grass) weedkilling efficacy grade (black-grass [10]) | e (wheat) effect on crop grade (wheat [11]) | N (chickweed) weedkilling efficacy grade (chickweed [12]) | b (directly sown rice) effect on crop grade (directly sown rice [13]) | d (soybean) effect on crop grade (soybean [14]) | B (bulrush) weedkilling efficacy grade (bulrush [15]) | K (Indian mallow) weedkilling efficacy grade (Indian mallow [16]) | H (black-grass) weedkilling efficacy grade (black-grass [17]) | A (barnyard grass) weedkilling efficacy grade (barnyard grass [18]) | M (fig-leafed goosefoot) weedkilling efficacy grade (fig-leafed goosefoot [19]) | G (wild oat) weedkilling efficacy grade (wild oat [20]) | other results |
| --- | --- | --- | --- | --- | --- | --- | --- | --- | --- | --- | --- | --- | --- | --- | --- | --- | --- | --- | --- | --- | --- |
| CC1=C(c2ccccc2)C(=O)N(C(C)(C)C(=O)Nc2nc(Cl)ns2)CO1 [B-1-12] | 4 (weed kill ratio 70% or more, less than 90%) | 3 (weed kill ratio 40% or more, less than 70%) | 5 (weed kill ratio 90% or more, (practically complete withering)) | 3 (weed kill ratio 40% or more, less than 70%) | 5 (weed kill ratio 90% or more, (practically complete withering)) | 5 (weed kill ratio 90% or more, (practically complete withering)) | 5 (weed kill ratio 90% or more, (practically complete withering)) | 2 (weed kill ratio 20% or more, less than 40%) | 3 (weed kill ratio 40% or more, less than 70%) | 4 (weed kill ratio 70% or more, less than 90%) | 0 (weed kill ratio 5% or less (practically no effect)) | 4 (weed kill ratio 70% or more, less than 90%) | 5 (weed kill ratio 90% or more, (practically complete withering)) | 0 (weed kill ratio 5% or less (practically no effect)) | 5 (weed kill ratio 90% or more, (practically complete withering)) | 3 (weed kill ratio 40% or more, less than 70%) | 4 (weed kill ratio 70% or more, less than 90%) | 5 (weed kill ratio 90% or more, (practically complete withering)) | 4 (weed kill ratio 70% or more, less than 90%) | 3 (weed kill ratio 40% or more, less than 70%) | C (oval-leafed pondweed) weedkilling efficacy grade (oval-leafed pondweed [5]): 5 (weed kill ratio 90% or more, (practically complete withering)); E (green foxtail) weedkilling efficacy grade (green foxtail [21]): 5 (weed kill ratio 90% or more, (practically complete withering)); N (chickweed) weedkilling efficacy grade (chickweed [22]): 4 (weed kill ratio 70% or more, less than 90%); D (crabgrass) weedkilling efficacy grade (crabgrass [23]): 5 (weed kill ratio 90% or more, (practically complete withering)); L (redroot pigweed) weedkilling efficacy grade (redroot pigweed [24]): 4 (weed kill ratio 70% or more, less than 90%); K (Indian mallow) weedkilling efficacy grade (Indian mallow [25]): 4 (weed kill ratio 70% or more, less than 90%); I (Italian ryegrass) weedkilling efficacy grade (Italian ryegrass [26]): 1 (weed kill ratio 5% or more, less than 20%); P (birds-eye speedwell) weedkilling efficacy grade (birds-eye speedwell [27]): 4 (weed kill ratio 70% or more, less than 90%); B (bulrush) weedkilling efficacy grade (bulrush [28]): 5 (weed kill ratio 90% or more, (practically complete withering)); f (beet) effect on crop grade (beet [29]): 5 (weed kill ratio 90% or more, (practically complete withering)); c (corn) effect on crop grade (corn [30]): 5 (weed kill ratio 90% or more, (practically complete withering)); f (beet) effect on crop grade (beet [31]): 4 (weed kill ratio 70% or more, less than 90%); e (wheat) effect on crop grade (wheat [32]): 0 (weed kill ratio 5% or less (practically no effect)); d (soybean) effect on crop grade (soybean [33]): 0 (weed kill ratio 5% or less (practically no effect)); L (redroot pigweed) weedkilling efficacy grade (redroot pigweed [34]): 0 (weed kill ratio 5% or less (practically no effect)); a (transplanted rice) effect on crop grade (transplanted rice): 0 (weed kill ratio 5% or less (practically no effect)); G (wild oat) weedkilling efficacy grade (wild oat [35]): 3 (weed kill ratio 40% or more, less than 70%); A (barnyard grass) weedkilling efficacy grade (barnyard grass [36]): 5 (weed kill ratio 90% or more, (practically complete withering)) |
| CC1=C(c2ccccc2)C(=O)N(C(C)(C)C(=O)Nc2cc(Cl)nc(Cl)c2)CO1 [B-4-05] | 4 (weed kill ratio 70% or more, less than 90%) | 5 (weed kill ratio 90% or more, (practically complete withering)) | 5 (weed kill ratio 90% or more, (practically complete withering)) | 1 (weed kill ratio 5% or more, less than 20%) | 5 (weed kill ratio 90% or more, (practically complete withering)) | 5 (weed kill ratio 90% or more, (practically complete withering)) | 3 (weed kill ratio 40% or more, less than 70%) | 5 (weed kill ratio 90% or more, (practically complete withering)) | 4 (weed kill ratio 70% or more, less than 90%) | 5 (weed kill ratio 90% or more, (practically complete withering)) | 0 (weed kill ratio 5% or less (practically no effect)) | 2 (weed kill ratio 20% or more, less than 40%) | 5 (weed kill ratio 90% or more, (practically complete withering)) | 0 (weed kill ratio 5% or less (practically no effect)) | 5 (weed kill ratio 90% or more, (practically complete withering)) | 3 (weed kill ratio 40% or more, less than 70%) | 4 (weed kill ratio 70% or more, less than 90%) | 4 (weed kill ratio 70% or more, less than 90%) | 2 (weed kill ratio 20% or more, less than 40%) | 5 (weed kill ratio 90% or more, (practically complete withering)) | E (green foxtail) weedkilling efficacy grade (green foxtail [21]): 5 (weed kill ratio 90% or more, (practically complete withering)); N (chickweed) weedkilling efficacy grade (chickweed [22]): 3 (weed kill ratio 40% or more, less than 70%); D (crabgrass) weedkilling efficacy grade (crabgrass [23]): 5 (weed kill ratio 90% or more, (practically complete withering)); L (redroot pigweed) weedkilling efficacy grade (redroot pigweed [24]): 4 (weed kill ratio 70% or more, less than 90%); K (Indian mallow) weedkilling efficacy grade (Indian mallow [25]): 3 (weed kill ratio 40% or more, less than 70%); I (Italian ryegrass) weedkilling efficacy grade (Italian ryegrass [26]): 5 (weed kill ratio 90% or more, (practically complete withering)); P (birds-eye speedwell) weedkilling efficacy grade (birds-eye speedwell [27]): 5 (weed kill ratio 90% or more, (practically complete withering)); B (bulrush) weedkilling efficacy grade (bulrush [28]): 5 (weed kill ratio 90% or more, (practically complete withering)); c (corn) effect on crop grade (corn [30]): 0 (weed kill ratio 5% or less (practically no effect)); f (beet) effect on crop grade (beet [31]): 0 (weed kill ratio 5% or less (practically no effect)); e (wheat) effect on crop grade (wheat [32]): 0 (weed kill ratio 5% or less (practically no effect)); d (soybean) effect on crop grade (soybean [33]): 3 (weed kill ratio 40% or more, less than 70%); L (redroot pigweed) weedkilling efficacy grade (redroot pigweed [34]): 3 (weed kill ratio 40% or more, less than 70%); a (transplanted rice) effect on crop grade (transplanted rice): 0 (weed kill ratio 5% or less (practically no effect)); G (wild oat) weedkilling efficacy grade (wild oat [35]): 4 (weed kill ratio 70% or more, less than 90%); A (barnyard grass) weedkilling efficacy grade (barnyard grass [36]): 5 (weed kill ratio 90% or more, (practically complete withering)) |
